Results published in patent US20230192608A1, “WATER-SOLUBLE, MODIFIED AMINO ACID DERIVATIVES FOR TREATMENT OF NEUROLOGICAL DISEASES, AND SELECTED PSYCHIATRIC DISORDERS” (Uniwersytet Jagiellonski, priority 2020, published 2023).
Marks after values point to notes of the source that are not given here.

Key:
[1] = test system: male white Swiss mice (CD-1); experiment: Anticonvulsant screening summarised over MES, scPTZ and 6 Hz (32 mA) models; assay type: in vivo; details: screening data of Table 3, 100 mg/kg intraperitoneal
Procedure: (§1) The studies were carried out on male white Swiss mice (CD-1) weighing 18-26 g. All procedures were performed in accordance with the applicable Polish and international guidelines for the ethics of animal research, after obtaining of the appropriate institutional consent. […] Screening tests were performed in groups consisted of 4 mice. All tests were performed according to the procedures described in the specialist literature: maximal electroshock test (MES) (Kamiński et al. Bioorg. Med. Chem. 2015, 23, 2548-2561; Castel-Branco et al. Pharmacol. 2009, 31, 101-106, Riban et al. Neurosci. 2002, 112, 101-111); psychomotor seizure test (6 Hz, 32 mA) (Barton et al. Epilepsy Res. 2001, 47, 217-227; Wojda et al. Epilepsy Res. 2009, 86, 163-174); subcutaneous pentylenetetrazole test (scPTZ) (Ferreri et al. Pharmacol. Biochem. Behav. 2004, 77, 85-94).
These models are recognized as the most important and widely used pharmacological tests allowing the identification of candidates for new antiepileptic drugs. […] This is crucial in situations requiring immediate intervention to stop seizures, including, e.g status epilpepticus, which is considered as a life-threatening situation.

[2] = test system: male white Swiss mice (CD-1); experiment: Maximal electroshock test (MES), screening; assay type: in vivo; details: 100 mg/kg intraperitoneal, time point 0.5 h
Procedure: as §1

[3] = test system: male white Swiss mice (CD-1); experiment: Psychomotor seizure test (6 Hz, 32 mA), screening; assay type: in vivo; details: 100 mg/kg intraperitoneal, time point 0.5 h
Procedure: as §1

[4] = test system: male white Swiss mice (CD-1); experiment: Subcutaneous pentylenetetrazole test (scPTZ), screening; assay type: in vivo; details: 100 mg/kg intraperitoneal, time point 0.5 h
Procedure: as §1

[5] = Water solubility test at 25° C. per 1 gram of compound (European Pharmacopoeia 10.0 / Polish Pharmacopoeia XII); details: for The volume of water required for dissolution of 1 g of the substance at 25° C.: 1 g of compound, maximum volume of water used 100 mL; for Matching term (solubility in water, pharmacopoeial terminology): European Pharmacopoeia 10.0 / Polish Pharmacopoeia XII
[6] = test system: male white Swiss mice (CD-1); details: model AED, comparison; cited from earlier work
[7] = test system: male white Swiss mice (CD-1); details: model AED, comparison; cited from earlier work; remark: listed apart in the source

SMILES	Anticonvulsant activity (in words) [1]	MES: number of mice protected/number of mice tested [2]	6 Hz (32 mA): number of mice protected/number of mice tested [3]	scPTZ: number of mice protected/number of mice tested [4]	The volume of water required for dissolution of 1 g of the substance at 25° C. [5]	Matching term (solubility in water, pharmacopoeial terminology) [5]	Activity in MES test (in words) [6]	Activity in scPTZ test (in words) [7]
C[C@H](C(=O)NCc1ccccc1)N1C(=O)CC(N(C)C)C1=O.Cl (stereo partly drawn) [Compound (2R)-5 × HCl, (2R)-N-benzyl-2-(3-(dimethylamino)-2,5-dioxopyrrolidin-1-yl)propanamide hydrochloride]	potent anticonvulsant activity	–	–	–	–	–	–	–
C[C@H](C(=O)NCc1ccccc1F)N1C(=O)CC(N(C)C)C1=O.Cl (stereo partly drawn) [Compound (2R)-6 × HCl, (2R)-2-(3-(dimethylamino)-2,5-dioxopyrrolidin-1-yl)-N-(2-fluorobenzyl)propanamide hydrochloride]	potent anticonvulsant activity	–	–	–	–	–	–	–
C[C@H](C(=O)NCc1ccccc1F)N1CCCC1=O [Compound (2R)-4, (2R)-N-(2-fluorobenzyl)-2-(2-oxopyrrolidin-1-yl)propanamide]	potent anticonvulsant activity	4/4	4/4	3/4	30 mL	Soluble	–	–
CC(C(=O)NCc1ccccc1F)N1CCCC1=O [(2R,S)-4, (2R,S)-N-(2-fluorobenzyl)-2-(2-oxopyrrolidin-1-yl)propanamide]	–	3/4	3/4	2/4	30 mL	Soluble	–	–
CC(C(=O)NCc1ccccc1F)N1CCCC1=O (stereo not shown) [Compound 4, N-(2-fluorobenzyl)-2-(2-oxopyrrolidin-1-yl)propanamide]	–	–	–	–	–	water-soluble substances	–	–
C[C@@H](C(=O)NCc1ccccc1F)N1C(=O)CCC1=O [(2S)-2, reference compound]	–	2/4	2/4	2/4	>100^c mL	Slightly soluble	–	–
CC(C(=O)NCc1ccccc1)N1C(=O)CCC1=O (racemic) [(2R,S)-1, reference compound]	–	3/4	3/4	2/4	>100^c mL	Slightly soluble	–	–
C[C@H](C(=O)NCc1ccccc1F)N1C(=O)CCC1=O [(2R)-2, reference compound]	–	4/4	4/4	3/4	>100^c mL	Slightly soluble	–	–
CC(C(=O)NCc1ccccc1F)N1C(=O)CC(N(C)C)C1=O (stereo not shown) [Compound 6]	–	–	–	–	–	substances easily soluble in water	–	–
CC(C(=O)NCc1ccccc1)N1CCCC1=O (stereo not shown) [Compound 3, N-benzyl-2-(2-oxopyrrolidin-1-yl)propanamide]	–	–	–	–	–	water-soluble substances	–	–
C[C@@H](C(=O)NCc1ccccc1F)N1CCCC1=O [Compound (2S)-4, (2S)-N-(2-fluorobenzyl)-2-(2-oxopyrrolidin-1-yl)propanamide]	–	2/4	2/4	2/4	30 mL	Soluble	–	–
CC(C(=O)NCc1ccccc1)N1C(=O)CC(N(C)C)C1=O (stereo not shown) [Compound 5, N-benzyl-2-(3-(dimethylamino)-2,5-dioxopyrrolidin-1-yl)propanamide]	–	–	–	–	–	substances easily soluble in water	–	–
CC[C@@H](C(N)=O)N1CCCC1=O [levetiracetam]	–	–	–	–	–	–	inactive	inactive
C[C@H](C(=O)NCc1ccccc1)N1C(=O)CCC1=O [(2R)-1, reference compound]	–	3/4	4/4	3/4	>100^c mL	Slightly soluble	–	–
C[C@H](C(=O)NCc1ccccc1)N1CCCC1=O [Compound (2R)-3, (2R)-N-benzyl-2-(2-oxopyrrolidin-1-yl)propanamide]	potent anticonvulsant activity	4/4	4/4	3/4	25 mL	Soluble	–	–
CC(C(=O)NCc1ccccc1F)N1C(=O)CCC1=O (racemic) [(2R,S)-2, reference compound]	–	3/4	3/4	3/4	>100^c mL	Slightly soluble	–	–
C[C@@H](C(=O)NCc1ccccc1)N1C(=O)CCC1=O [(2S)-1, reference compound]	–	1/4	4/4	2/4	>100^c mL	Slightly soluble	–	–
CC(C(=O)NCc1ccccc1)N1CCCC1=O [Compound (2R,S)-3, (2R,S)-N-benzyl-2-(2-oxopyrrolidin-1-yl)propanamide]	–	3/4	4/4	2/4	25 mL	Soluble	–	–
C[C@@H](C(=O)NCc1ccccc1)N1CCCC1=O [Compound (2S)-3, (2S)-N-benzyl-2-(2-oxopyrrolidin-1-yl)propanamide]	–	2/4	2/4	2/4	25 mL	Soluble	–	–
